Test results from patent US11021481B2, “Substituted isoindolin-1-ones and 2,3-dihydro-1h-pyrrolo[3,4-c]pyridin-1-ones as HPK1 antagonists” (Nimbus Saturn, Inc., priority 2019, dated 2021).
Structures can show the parent of a compound that is named as a salt.

These compounds were tested against HPK1 (Homo sapiens (Human), UniProt Q92918) (assay: HPK1 biochemical enzyme assay (microfluidic mobility shift assay)). Conditions: 1.5 nM HPK1, ATP 1 mM final, 30 min preincubation, 60 min at RT, Caliper EZ Reader; read-out: HPK1 1000UMATP caliper IC50.
HPK1, sequence (Q92918 whole entry): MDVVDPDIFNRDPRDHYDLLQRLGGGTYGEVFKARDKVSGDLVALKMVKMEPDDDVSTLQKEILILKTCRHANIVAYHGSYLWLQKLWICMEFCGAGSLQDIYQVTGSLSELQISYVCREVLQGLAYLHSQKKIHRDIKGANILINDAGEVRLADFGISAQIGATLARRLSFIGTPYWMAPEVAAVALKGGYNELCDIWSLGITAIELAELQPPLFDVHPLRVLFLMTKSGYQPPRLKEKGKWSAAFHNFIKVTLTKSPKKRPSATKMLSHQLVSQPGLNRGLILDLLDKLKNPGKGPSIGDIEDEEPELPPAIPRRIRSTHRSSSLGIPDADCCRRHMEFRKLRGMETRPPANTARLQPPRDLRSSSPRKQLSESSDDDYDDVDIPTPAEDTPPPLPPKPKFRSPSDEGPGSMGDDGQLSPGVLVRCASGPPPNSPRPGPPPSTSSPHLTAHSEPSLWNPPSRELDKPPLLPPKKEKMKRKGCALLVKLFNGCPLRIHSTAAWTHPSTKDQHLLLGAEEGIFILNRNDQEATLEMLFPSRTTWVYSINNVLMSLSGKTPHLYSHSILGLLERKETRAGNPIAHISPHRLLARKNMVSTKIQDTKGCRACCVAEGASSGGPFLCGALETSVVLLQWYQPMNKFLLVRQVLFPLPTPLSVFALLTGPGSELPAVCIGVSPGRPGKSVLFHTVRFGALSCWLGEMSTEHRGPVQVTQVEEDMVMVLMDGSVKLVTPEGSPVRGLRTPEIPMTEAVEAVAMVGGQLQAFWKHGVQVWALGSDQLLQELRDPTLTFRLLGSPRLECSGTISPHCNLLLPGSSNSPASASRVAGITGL
Experimental: HPK1 biochemical enzyme assay: HPK1 enzyme inhibition was measured using a microfluidic mobility shift assay. […] Test compounds were titrated in ten point curves (top final assay concentration 3 μM), and preincubated with enzyme/substrate mix for 30 min prior to initiation of the reaction by addition of ATP (1 mM final concentration) and substrate (1 μM final concentration; Carna Biosciences) diluted in assay buffer supplemented by MgCl2 (final assay concentration of 5 mM). Following 60 min incubation at RT, the reaction was terminated by addition of 60 µl/well termination buffer (Carna Biosciences) and signal determination using aCaliper EZ Reader (Perkin Elmer, UK).
The compound numbers correspond to the compound numbers in Table 1.

Compound | IC50
O=C1NCc2c(-c3cnc4cc(Cl)ccn34)ccc(Nc3ccc(N4CCOCC(O)C4)cn3)c21 (stereo in doubt) [I-595, (S)-4-(7-chloroimidazo [1,2-a]pyridin-3-yl)-7-((5-(6-hydroxy-1.4-oxazepan-4-yl)pyridin-2-yl)amino)isoin-dolin-1-one] | < 100 nM
Cc1cnc2c(-c3ccc(Nc4ccc(N5CCC(O)CC5)cn4)c4c3CNC4=O)cccn12 [I-215, 7-[[5-(4-hydroxy-1-piperidyl)-2-pyridyl]-amino]-4-(3-methylimidazo [1,2-a]pyridin-8-yl)isoindolin-1-one] | 100 to 1000 nM
Cc1ccn2c(-c3ccc(Nc4ccc(N5CCC(O)(CN6CCN(C)CC6)CC5)cn4)c4c3CNC4=O)cnc2c1F [I-444, 4-(8-fluoro-7-methylimidazo [1,2-a]pyridin-3-yl)-7-((5-(4-hydroxy-4-((4-methylpiperazin-1-yl)methyl)piper-idin-1-yl)pyridin-2-yl)amino)isoin-dolin-1-one] | < 100 nM
CN1CCN(c2ccc(Nc3ccc(-c4c[nH]c5ccccc45)c4c3C(=O)NC4)nc2)CC1 [I-46, 4-(1H-indol-3-yl)-7-[[5-(4-methylpiperazin-1-yl)-2-pyridyl]amino] isoindolin-1-one] | < 100 nM
O=C1NCc2c(-c3cnc4c(C(F)(F)F)cccn34)ccc(Nc3ccc(N4CCC(O)CC4)cn3)c21 [I-149] | < 100 nM
CN(C)CCc1nc(Nc2cnc(-c3ccnc4c3ccn4C)c3c2C(=O)NC3)ccc1C1CCOC1 (stereo in doubt) [I-808, (S)-7-((6-(2-(dimothylami-no)ethyl)-5-(tetrahydrofuran-3-yl)pyridin-2-yl)amino)-4-(1-methyl-1H-pyrrolo[2,3-b]pyridin-4-yl)-2,3-dihydro-1H-pyrrolo[3,4-c]pyridin-1-one] | < 100 nM
CN1CCN(c2ccc(Nc3cnc(-c4cccc5c4ccn5C)c4c3C(=O)NC4)nc2)CC1 [I-251, 4-(1-methyl-1H-indol-4-yl)-7-((5-(4-methylpiperazin-1-yl)pyridin-2-yl)amino)-2,3-dihydro-1H-pyrrolo[3,4-c]pyridin-1-one] | < 100 nM
Cc1cnc2c(ccn2C)c1-c1ccc(Nc2ccc(N3CCNCC3)cn2)c2c1CNC2=O [I-99, 4-(l,5-dimethylpyrrolo [2,3-b]pyridin-4-yl)-7-[(5-piperazin-1-yl-2-pyridyl)amino] isoindolin-1-one] | 100 to 1000 nM
Cn1ccc2c(-c3ncc(Nc4ccc(N5C[C@H]6C[C@@H]5CO6)cn4)c4c3CNC4=O)ccnc21 [I-289, 7-((5-((1R,4R)-2-oxa-5-azabicyclo[2.2.1]heptan-5-yl)pyridin-2-yl)amino)-4-(1-methyl-1H-pyrrolo[2,3-b]pyridin-4-yl)-2,3-dihydro-1H-pyrrolo[3,4-c]pyridin-1-one] | < 100 nM
(S)-7-((6- ((dimethylamino)- methyl)-5- (tetrahydrofuran- 3-yl)pyridin- 2-yl)amino)-4- (1-methyl-1H- indol-4-yl)- 2,3-dihydro- 1H-pyrrolo[3,4- c]pyridin-1-one [I-540] | < 100 nM
CN1CCN(c2ccc(Nc3ccc(-c4ccnc5c4ccn5CC(N)=O)c4c3C(=O)NC4)nc2)CC1 [I-269, 2-(4-(7-((5-(4-methylpiperazin-1-yl)pyridin-2-yl)amino)-1-oxoisoindolin-4-yl)-lH-pyrrolo[2.3-b]pyridin-1-yl)acctamide] | < 100 nM
Cc1ccn2c(-c3ncc(Nc4ccc(N5CCO[C@@H](C(C)(C)O)C5)cn4)c4c3CNC4=O)cnc2c1F [I-467, 4-(8-fluoro-7-methyl-imidazo[1,2-a]pyridin-3-yl)-7-[[5-[(2R)-2-(1-hydroxy-1-methyl-ethyl)morpholin-4-yl]-2-pyridyl]amino]-2,3-dihydropyrrolo [3,4-c]pyridin-l-one] | < 100 nM
O=C1NCc2c(-c3cnc4cc(C(F)F)ccn34)ccc(Nc3ccc(N4CCC(O)CC4)cn3)c21 [I-194, 4-[7-(difluorometh-yl)imidazo[1,2-a]pyridin-3-yl]-7-[[5-(4-hydroxy-1-piperidyl)-2-pyripyl]amino] isoindolin-1-one] | < 100 nM
O=C1NCc2c(-c3cccn4nccc34)ncc(Nc3ccc(N4CCC(O)CC4)cn3)c21 [I-370, 7-((5-(4-hydroxy-piperidin-1-yl)pyridin-2-yl)amino)-4-(pyrazolo[1,5-a]pyridin-4-yl)-2,3-dihydro-1H-pyrrolo[3,4-c]pyridin-1-one] | 100 to 1000 nM

More lines, now with the values ahead:

IC50 | Compound
< 100 nM | O=C1NCc2c(-c3cnc4cc(F)ccn34)ccc(Nc3ccc([C@H]4CCOC4)c(CN4CCOCC4)n3)c21 (stereo in doubt) [I-720, (SMK7-fluoroimidazo [1,2-a]pyridin-3-yl)-7-((6-(morpholinomethyl)-5-(tetrahydrofuran-3-yl)pyridin-2-yl)amino)isoin-dolin-1-one]
< 100 nM | CN(C)Cc1nc(Nc2ccc(-c3cnc4cc(F)ccn34)c3c2C(=O)NC3)ccc1[C@]1(O)CCOC1 [I-803, (R)-7-((6-((dimethylamino)-methyl)-5-(3-hydroxytetra-hydrofuran-3-yl)pyridin-2-yl)amino)-4-(7-fluoroimidazo [1,2-a]pyridin-3-yl)isoindolin-1-one]
< 100 nM | Cc1ccn2c(-c3ccc(Nc4ccc(N5CCC[C@H](C(C)(C)O)C5)cn4)c4c3CNC4=O)cnc2n1 [I-225, 7-[[5-[(3S)-3-(1-hydroxy-1-methyl-ethyl)-1-piperidyl]-2-pyridyl]-amino]-4-(7-methylimidazo [1,2-a]pyrimidin-3-yl)isoindolin-1-one]
< 100 nM | CN(C)C1CCCc2ccc(Nc3ccc(-c4cnc5cc(F)ccn45)c4c3C(=O)NC4)nc21 (stereo not shown) [I-536, 7-[[8-(dimethylami-no)-5,6,7,8-tetrahydroquin-olin-2-yl]amino]-4-(7-fluoroimidazo [1,2-a]pyridin-3-yl)isoindolin-1-one Formic acid salt]
< 100 nM | COCCN(C)Cc1nc(Nc2ccc(-c3cnc4cc(F)ccn34)c3c2C(=O)NC3)ccc1C1CCOC1 (stereo in doubt) [I-728, (S)-4-(7-fluoroimidazo [1,2-a]pyridin-3-yl)-7-(6-(((2-methoxyethyl) (methyl)-amino)methyl)-5-(tetrahydrofuran-3-yl)pyridin-2-yl)amino)isoin-dolin-1-one]
< 100 nM | O=C1NCc2c(-c3cnc4cc(F)ccn34)ccc(Nc3ccc(N4C[C@H]5CC[C@@H](C4)C5O)cn3)c21 (stereo partly drawn) [I-404, 4-(7-fluoroimidazo [1,2-a]pyridin-3-yl)-7-((5-((1R,5S)-8-hydroxy-3-azabicyclo [3,2.1]octan-3-yl)pyridin-2-yl)amino)isoin-dolin-1-one]
< 100 nM | CN(C)Cc1nc(Nc2ccc(-c3cnc4cc(F)ccn34)c3c2C(=O)NC3)ccc1N1CCC[C@@H](C(C)(C)O)C1 [I-745, (R)-7-((6-((dimethylamino)-methyl)-5-(3-(2-hydroxypropan-2-yl)piperidin-1-yl)pyridin-2-yl)amino)-4-(7-fluoroimidazo [1,2-a]pyridin-3-yl)isoindolin-1-one]
< 100 nM | CN(C)Cc1nc(Nc2ccc(-c3cnc4cc(F)ccn34)c3c2C(=O)NC3)cnc1[C@H]1CCOC1 [I-800, (R)-7-((6-((dimethylamino)-methyl)-5-(tetrahydrofuran-3-yl)pyrazin-2-yl)amino)-4-(7-fluoroimidazo [1,2-a]pyridin-3-yl)isoindolin-1-one]
